In the supplement of paper PMC10307832:

What was measured:
Assay in all cases: relative viability (nuclei count vs DMSO), 5 days (fraction); higher = more cells survive
Elesclomol + Pictilisib = compound: CN(NC(=O)CC(=O)NN(C)C(=S)c1ccccc1)C(=S)c1ccccc1 [Elesclomol] + CS(=O)(=O)N1CCN(Cc2cc3nc(-c4cccc5[nH]ncc45)nc(N4CCOCC4)c3s2)CC1 [Pictilisib] (partner 1 µM)
Summary of the method: (§1)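 Lung cancer cell lines were seeded in 1536-well plates and dosed by pin tool the next day, with either a single drug or a fixed anchor-drug dose combined with five library-drug doses (not always all listed) spaced in √10 steps. Five days later, one step fixed the cells and stained their nuclei (final 0.05% Triton X-100, 1% formaldehyde, 1 ug/ml Hoechst), and nuclei were counted on 4× images. Relative viability is the nuclei count in treated wells divided by the count in vehicle wells, and each value is the median of duplicate plates.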

Elesclomol + Luminespib = compound: CN(NC(=O)CC(=O)NN(C)C(=S)c1ccccc1)C(=S)c1ccccc1 [Elesclomol] + CCNC(=O)c1noc(-c2cc(C(C)C)c(O)cc2O)c1-c1ccc(CN2CCOCC2)cc1 [Luminespib] (partner 0.01 µM)
Summary of the method: as §1

Elesclomol + Linsitinib = compound: CN(NC(=O)CC(=O)NN(C)C(=S)c1ccccc1)C(=S)c1ccccc1 [Elesclomol] + C[C@]1(O)C[C@@H](c2nc(-c3ccc4ccc(-c5ccccc5)nc4c3)c3c(N)nccn32)C1 [Linsitinib] (partner 1 µM)
Summary of the method: as §1

Elesclomol + Phenformin = compound: CN(NC(=O)CC(=O)NN(C)C(=S)c1ccccc1)C(=S)c1ccccc1 [Elesclomol] + N=C(N)NC(=N)NCCc1ccccc1 [Phenformin] (partner 250 µM)
Summary of the method: as §1

Elesclomol + Crizotinib = compound: CN(NC(=O)CC(=O)NN(C)C(=S)c1ccccc1)C(=S)c1ccccc1 [Elesclomol] + C[C@@H](Oc1cc(-c2cnn(C3CCNCC3)c2)cnc1N)c1c(Cl)ccc(F)c1Cl [Crizotinib] (partner 1 µM)
Summary of the method: as §1

Cell Line	relative viability (Elesclomol + Pictilisib; first compound 0.003162 µM)	relative viability (Elesclomol + Pictilisib; first compound 0.01 µM)	relative viability (Elesclomol + Pictilisib; first compound 0.03162 µM)	relative viability (Elesclomol + Pictilisib; first compound 0.1 µM)	relative viability (Elesclomol + Luminespib; first compound 0.003162 µM)	relative viability (Elesclomol + Luminespib; first compound 0.01 µM)	relative viability (Elesclomol + Luminespib; first compound 0.03162 µM)	relative viability (Elesclomol + Luminespib; first compound 0.1 µM)	relative viability (Elesclomol + Linsitinib; first compound 0.003162 µM)	relative viability (Elesclomol + Linsitinib; first compound 0.01 µM)	relative viability (Elesclomol + Linsitinib; first compound 0.03162 µM)	relative viability (Elesclomol + Linsitinib; first compound 0.1 µM)	relative viability (Elesclomol + Phenformin; first compound 0.003162 µM)	relative viability (Elesclomol + Phenformin; first compound 0.01 µM)	relative viability (Elesclomol + Phenformin; first compound 0.03162 µM)	relative viability (Elesclomol + Phenformin; first compound 0.1 µM)	relative viability (Elesclomol + Crizotinib; first compound 0.003162 µM)	relative viability (Elesclomol + Crizotinib; first compound 0.01 µM)	relative viability (Elesclomol + Crizotinib; first compound 0.03162 µM)	relative viability (Elesclomol + Crizotinib; first compound 0.1 µM)
NCI-H1395	0.65	0.324	0.292	0.436	0.57	0.498	0.308	0.292	0.857	0.347	0.716	0.26	0.45	0.364	0.296	0.27				
NCI-H1666	0.359	0.267	0.243	0.195	0.962	0.788	0.521	0.484	0.833	0.358	0.321	0.202	0.566	0.554	0.494	0.476	0.745	0.271	0.235	0.15
NCI-H2405	0.472	0.249	0.228	0.236	0.684	0.554	0.265	0.299	0.899	0.315	0.26	0.27	0.39	0.335	0.335	0.366	0.785	0.565	0.306	0.307
NCI-H2009	0.797	0.225	0.122	0.0966	0.977	0.494	0.167	0.116	1.25	0.677	0.183	0.142	0.344	0.239	0.243	0.107	1.06	0.644	0.137	0.109
HCC-78	0.252	0.2	0.229	0.217					0.425	0.521	0.497	0.408	0.631	0.758	0.539	0.615	0.356	0.325	0.326	0.336
NCI-H2170	0.328	0.266	0.298	0.193	0.735	0.624	0.646	0.435					0.39	0.402	0.376	0.341	1.26	0.956	1.17	0.653
NCI-H1793	0.273	0.307	0.335	0.178	0.13	0.148	0.158	0.133	0.901	0.733	0.927	0.25	0.302	0.35	0.335	0.247				
HCC-366	0.135	0.123	0.211	0.0502					0.689	0.663	0.622	0.0082	0.611	0.562	0.436	0.0349	0.566	0.616	0.112	0.0109
NCI-H1651	0.454	0.323	0.177	0.0888	0.944	0.361	0.157	0.0878	0.748	0.673	0.193	0.111	0.321	0.257	0.151	0.1	0.81	0.833	0.951	0.531
LC-2-ad	0.419	0.195	0.102	0.0937	0.497	0.47	0.33	0.265	0.91	0.761	0.117	0.112	0.514	0.271	0.269	0.331	0.423	0.251	0.194	0.238
HCC-827	1.03	0.988	1.04	0.811	0.586	0.54	0.579	0.473	0.959	0.851	1.03	0.707	0.382	0.402	0.371	0.393	0.965	0.94	0.96	0.675
NCI-H1703	0.198	0.106	0.133	0.128					0.179	0.122	0.0723	0.0652					0.151	0.137	0.0928	0.0853
NCI-H1650	0.185	0.177	0.18	0.15	0.156	0.206	0.201	0.148					0.315	0.211	0.173	0.133	0.325	0.221	0.255	0.122
NCI-H2342					0.665	0.551	0.391	0.322					0.482	0.596	0.355	0.292				
SW 900					0.173	0.132	0.17	0.139					0.521	0.337	0.178	0.0792				
NCI-H522					0.958	1.02	1.06	0.625					0.681	0.736	0.668	0.549				
IA-LM	0.275	0.126	0.052	0.0237					0.47	0.265	0.134	0.022					0.746	0.343	0.0493	0.0241
